# Measured values from paper PMC11714206, “Massively Parallel Screening of Toll/Interleukin‐1 Receptor (TIR)‐Derived Peptides Reveals Multiple Toll‐Like Receptors (TLRs)‐Targeting Immunomodulatory Peptides” (Advanced Science, 2024).
# Target: T1, MyD88^TIR (Homo sapiens, UniProt Q99836)
# T1 construct: MyD88 (residues 148–296); 6xHis; made in house; host or cells: E. coli BL21 (DE3)
# Test: T‐Surf phage library (P8 and P3) selection against MyD88^TIR, four rounds, NGS read counts
# Format: binding
# Settings: for P3_MyD88 Rank (after) / P3_MyD88 Rank (before): P3 library; for Population: 4th round of selection against MyD88 TIR, share of NGS reads; for P8_MyD88 Rank (after) / P8_MyD88 Rank (before): P8 library
# How it was run: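 Coat TIR domain 5 µg mL^−1 overnight; block 0.2% BSA/PBS 1 h, 4 °C; add phage library 1 h, RT; wash ×4 PBS/0.5% Tween‐20; elute 100 mM HCl, neutralize Tris; amplify in TG1, PEG‐precipitate. Repeat to round 4; barcode PCR, NovaSeq, count reads.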
# [1] = 4R selection against MyD88, rank after grouping
# [2] = 4R selection against MyD88, rank before grouping
# [3] = P3_MyD88 pool: P3 T-Surf phage library
# [4] = selection against MyD88 TIR, rank by count after grouping
# [5] = selection against MyD88 TIR, rank by count before grouping
# [6] = P3_MyD88: rank by count after grouping
# [7] = P3_MyD88: rank by count before grouping
# [8] = P8_MyD88: rank by count after grouping
# [9] = P8_MyD88: rank by count before grouping
# [10] = P8_MyD88 pool: P8 T-Surf phage library
# [11] = P8_MyD88: rank by NGS read count after grouping
# [12] = P8_MyD88: rank by NGS read count before grouping
# [13] = selection against MyD88, rank after grouping
# [14] = selection against MyD88, rank before grouping
# [15] = selection against MyD88, rank by count after grouping
# [16] = selection against MyD88, rank by count before grouping
# T1 sequence (Q99836 148-296): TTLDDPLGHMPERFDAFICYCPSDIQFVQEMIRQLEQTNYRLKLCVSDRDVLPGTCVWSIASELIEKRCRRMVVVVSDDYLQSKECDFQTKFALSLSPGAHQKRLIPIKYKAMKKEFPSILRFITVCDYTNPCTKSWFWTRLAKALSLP
sequence,measurement,setting,value
SSLREGLWRLLELGKK,P3_MyD88 Rank (after),[1],597
same,P3_MyD88 Rank (before),[2],3255
SSLREGLWRLLELSKK,Population,[3],0.00291%
SSLREGLWRLLELSKR,P3_MyD88 Rank (after),[4],209
same,P3_MyD88 Rank (before),[5],3257
SSLREGLWRLQELSKK,Rank (after),[6],135
same,Rank (before),[7],3273
SSRRERLWRLLELSKK,Rank (after),[6],424
same,Rank (before),[7],3274
SSRWALDELVHIMQAL,Rank (after),[8],161
same,Rank (before),[9],179
same,Population,[10],0.00771%
SSRWALDELVQILHARELF,Rank (after),[11],887
same,Rank (before),[12],3809
SSSFALHELATILEAL,Rank (after),[8],412
same,Rank (before),[9],1290
SSSREGLWRLLELSKK,Population,[3],0.0032%
SSTWALDELERILEYM,P8_MyD88 Rank (after),[4],198
same,P8_MyD88 Rank (before),[5],294
SSVRECLWRLLELSKK,P3_MyD88 Rank (after),[13],516
same,P3_MyD88 Rank (before),[14],3268
SSVRGGRWGLVELGKK,Rank (after),[6],455
same,Rank (before),[7],3269
SSWREGLCRLLELRNK,P3_MyD88 Rank (after),[13],501
same,P3_MyD88 Rank (before),[14],3264
SSWWALEELAHIIE,P8_MyD88 Rank (after),[1],634
same,P8_MyD88 Rank (before),[2],3803
SSYRESLRRLPALSKK,P3_MyD88 Rank (after),[15],739
same,P3_MyD88 Rank (before),[16],3266
SSYRQGLWRLLELSKK,P3_MyD88 Rank (after),[13],485
same,P3_MyD88 Rank (before),[14],3267
STAMTNRGFHTFRDND,P3_MyD88 Rank (after),[15],688
same,P3_MyD88 Rank (before),[16],1427
STTYLQWGDNWFWDKL,P8_MyD88 Rank (after),[15],740
same,P8_MyD88 Rank (before),[16],3819
SWAVDELLKILQAWDE,Rank (after),[8],137
same,Rank (before),[9],151
same,Population,[10],0.0108%
SWAVDELLQILHARELF,P8_MyD88 Rank (after),[1],625
same,P8_MyD88 Rank (before),[2],3756
SWGQSFLKSPLGWLFA,P3_MyD88 Rank (after),[4],272
same,P3_MyD88 Rank (before),[5],2936
SWYLDEVAKIIDAMKE,Rank (after),[8],133
same,Rank (before),[9],144
same,Population,[10],0.0116%
TEPADTAFWDALWNKL,Rank (after),[8],188
same,Rank (before),[9],237
THSHNAVPAAANLSGW,Rank (after),[6],404
same,Rank (before),[7],3289
TSHFLDSYWAMFELNM,Rank (after),[8],140
same,Rank (before),[9],152
same,Population,[10],0.01%
TSHLHHAPRPNEIETL,P3_MyD88 Rank (after),[1],653
same,P3_MyD88 Rank (before),[2],3323
TSHLHRAWRLNELRTY,P3_MyD88 Rank (after),[4],284
same,P3_MyD88 Rank (before),[5],3294
TSTWALDELLRILY,Rank (after),[11],912
same,Rank (before),[12],3824
TSTWALDELWLILEQR,Population,[10],0.0262%
TYLWWVEDERGQEYFW,P8_MyD88 Rank (after),[4],221
same,P8_MyD88 Rank (before),[5],370
VANIGLIGSILWALK,Rank (after),[11],942
same,Rank (before),[12],2163
VANILGCHWIDWECFV,Rank (after),[8],464
same,Rank (before),[9],2165
VANILGYHCIDWEHFVGIED,P8_MyD88 Rank (after),[15],722
same,P8_MyD88 Rank (before),[16],2169
VANILGYHCKGWENFV,P8_MyD88 Rank (after),[1],674
same,P8_MyD88 Rank (before),[2],2170
VANILGYHWFDWEYFVVIGD,Rank (after),[11],875
same,Rank (before),[12],2171
VANILGYHWIAREHFV,Rank (after),[8],474
same,Rank (before),[9],2164
VANILGYHWMDWVYFV,P8_MyD88 Rank (after),[13],563
same,P8_MyD88 Rank (before),[14],2191
VASHWALEELRMIMDF,Rank (after),[8],160
same,Rank (before),[9],177
same,Population,[10],0.00771%
VDPSHLRKQSGEFG,P3_MyD88 Rank (after),[15],683
same,P3_MyD88 Rank (before),[16],1770
VDPTHIRNQTGRYEKA,P3_MyD88 Rank (after),[1],642
same,P3_MyD88 Rank (before),[2],1768
VGKLKKGESFAPELLR,P3_MyD88 Rank (after),[4],229
same,P3_MyD88 Rank (before),[5],1765
VQCGDPWCWEKLAYAM,P8_MyD88 Rank (after),[1],596
same,P8_MyD88 Rank (before),[2],2212
VQWADPWFWDKLAYEK,Rank (after),[11],1016
same,Rank (before),[12],2215
VQWDDPWFWDKLAY,P8_MyD88 Rank (after),[1],623
same,P8_MyD88 Rank (before),[2],2231
VQWDDPWFWDKLAYA,Rank (after),[8],417
same,Rank (before),[9],1009
VQWDDSWFWEKLLYA,Rank (after),[11],1018
same,Rank (before),[12],2248
VQWDELLQILHARELF,Rank (after),[11],965
same,Rank (before),[12],2249
VQWEDPWFWDKLAYEM,Rank (after),[8],460
same,Rank (before),[9],2253
VRHTFAGYLYDALNRL,Rank (after),[8],141
same,Rank (before),[9],155
same,Population,[10],0.01%
VSHLIDAFERYGIMFFIDT,P8_MyD88 Rank (after),[13],572
same,P8_MyD88 Rank (before),[14],2260
VSHLSDSFERYGIMFF,P8_MyD88 Rank (after),[15],731
same,P8_MyD88 Rank (before),[16],2266
VSSFISYLIAAFNRQG,Rank (after),[8],116
same,Rank (before),[9],124
same,Population,[10],0.0173%
VTSSWALEELRHIMEL,Rank (after),[11],947
same,Rank (before),[12],2269
WAFASNMAQFWDRLYS,Rank (after),[11],878
same,Rank (before),[12],1395
WALAELLKILYAKEPM,P8_MyD88 Rank (after),[15],763
same,P8_MyD88 Rank (before),[16],1399
WALAELLQLLHARELF,Rank (after),[8],395
same,Rank (before),[9],1410
WALDDLLQILQARELF,Rank (after),[11],988
same,Rank (before),[12],1523
WALDELLKFCMRMKP,P8_MyD88 Rank (after),[13],520
same,P8_MyD88 Rank (before),[14],1471
WALDELLKILCANKTM,P8_MyD88 Rank (after),[15],766
same,P8_MyD88 Rank (before),[16],1477
WALDELLKILDAKETM,Population,[10],0.0116%
WALDELLKILHADETM,P8_MyD88 Rank (after),[15],687
same,P8_MyD88 Rank (before),[16],1492
WALDELLKILYARELF,P8_MyD88 Rank (after),[4],222
same,P8_MyD88 Rank (before),[5],518
WALDELLKILYVIATL,P8_MyD88 Rank (after),[13],525
same,P8_MyD88 Rank (before),[14],1480
WALDELLQILHACEPF,P8_MyD88 Rank (after),[13],524
same,P8_MyD88 Rank (before),[14],1441
WALDELLQILHAKETM,P8_MyD88 Rank (after),[1],598
same,P8_MyD88 Rank (before),[2],1458
WALDELLQILHAREL,P8_MyD88 Rank (after),[13],577
same,P8_MyD88 Rank (before),[14],1451
WALDELLQILHARELLQIA,P8_MyD88 Rank (after),[1],632
same,P8_MyD88 Rank (before),[2],1453
WALDELLQILHARRTE,P8_MyD88 Rank (after),[15],702
same,P8_MyD88 Rank (before),[16],1457
WALDELLQILHPRELV,Rank (after),[11],981
same,Rank (before),[12],1460
WALDELLQILHVSEMF,P8_MyD88 Rank (after),[15],747
same,P8_MyD88 Rank (before),[16],1418
WALDELLQILNAREMF,Rank (after),[8],415
same,Rank (before),[9],1464
WALDELLQILQARELS,P8_MyD88 Rank (after),[15],721
same,P8_MyD88 Rank (before),[16],1462
WALDELLQILRARDLF,P8_MyD88 Rank (after),[15],727
same,P8_MyD88 Rank (before),[16],1465
WALDELLQILYARERF,Rank (after),[8],448
same,Rank (before),[9],1466
WALDELLQLQHARELF,P8_MyD88 Rank (after),[13],561
same,P8_MyD88 Rank (before),[14],1431
WALDELLRILY,Population,[10],0.01%
WALDELLTILYAKETM,P8_MyD88 Rank (after),[1],608
same,P8_MyD88 Rank (before),[2],1468
WALDELRKNLYAIETM,P8_MyD88 Rank (after),[15],701
same,P8_MyD88 Rank (before),[16],1502
WALDELWHILRALGLF,P8_MyD88 Rank (after),[1],631
same,P8_MyD88 Rank (before),[2],1426
WALDERLIIQYANETM,P8_MyD88 Rank (after),[15],679
same,P8_MyD88 Rank (before),[16],1510
WALDEVLKIQDDNETM,P8_MyD88 Rank (after),[13],544
same,P8_MyD88 Rank (before),[14],1423
WALDEVLQILRARELF,Rank (after),[8],419
same,Rank (before),[9],1421
WALDGLLKILHARELF,Rank (after),[8],409
same,Rank (before),[9],1413
WALDLDWFYERLVSLF,P8_MyD88 Rank (after),[4],225
same,P8_MyD88 Rank (before),[5],426
WALDLEWFYERLFSQM,P8_MyD88 Rank (after),[1],587
same,P8_MyD88 Rank (before),[2],1517
WALDLQWFYERLVSLI,Rank (after),[8],480
same,Rank (before),[9],1518
WALDVLLQFLHARELF,P8_MyD88 Rank (after),[15],723
same,P8_MyD88 Rank (before),[16],1412
WALEELRLIMELHSV,P8_MyD88 Rank (after),[13],504
same,P8_MyD88 Rank (before),[14],1525
WALGELLQILQARERC,Rank (after),[11],943
same,Rank (before),[12],1408
WALIELRTIMELWSGN,P8_MyD88 Rank (after),[4],220
same,P8_MyD88 Rank (before),[5],377
WALNELLEILKAREDI,Rank (after),[8],115
same,Rank (before),[9],123
same,Population,[10],0.0173%
WALNELLEILYANETM,P8_MyD88 Rank (after),[1],663
same,P8_MyD88 Rank (before),[2],1535
WALNELLEIMQAKRDL,P8_MyD88 Rank (after),[4],258
same,P8_MyD88 Rank (before),[5],429
WALNELLKILHARELF,Rank (after),[8],414
same,Rank (before),[9],1546
WALNELLKILQAKIFL,Rank (after),[11],905
same,Rank (before),[12],1547
WALNELLKILYANETM,Population,[10],0.0108%
WALNELLQILHARELF,Population,[10],0.00617%
WALNELQKILNAKETI,Rank (after),[11],900
same,Rank (before),[12],1553
WALNELQQILHARELF,Rank (after),[8],445
same,Rank (before),[9],1549
